Key:
[1] = test system: polymorphonuclear neutrophils (PMNs); experiment: GRO-α driven chemotaxis assay with PMNs (ChemoTx plate); assay type: cell-based; details: 20 μM compound; 50 nM GRO-α, human PMNs
Procedure: Peripheral blood from healthy human volunteers was collected into heparin, diluted in an equal volume of PBS, layered over Ficoll-Paque Plus (Pharmacia Biotech, Uppsala, Sweden), and spun at 400×g for 30 min. The PMN rich fraction was removed and residual erythrocytes were lysed with hypotonic saline. The polymorphonuclear neutrophils (PMNs) were washed once with assay buffer (Dulbecco's PBS containing divalent cations and 0.1% endotoxin-free BSA), and resuspended at 1E7 cells/mL in the same buffer. PMNs were loaded with 5 μM calcein AM (Molecular Probes, Eugene, Oreg.), washed twice and resuspended in assay buffer.
Growth Regulatory Oncogene a (GRO-α) driven chemotaxis assays were performed according to the following protocol. […] Test compounds were dissolved in DMSO (100%) at 20 mM and diluted in assay buffer to the desired concentrations; final DMSO concentration was 0.2%. Neutrophil migration proceeded for 40 min at 37° C. in a humidified incubator with 5% CO2. After removing nonmigrated cells from the top of the plate, migrated cells were quantified by reading fluorescence on a Wallac Victor.
The ratio of the positive to negative controls represents the chemotactic index of the cells. The results from this assay are reported in Tables 3–5, under the column headings IL-8 and GRO-α, and under the sub-column headings ChTx (for chemotaxis).

[2] = molecular target: T1, IL-8 type β receptor (IL-8Rβ) (Homo sapiens, UniProt P25025); experiment: [125I] IL-8 binding assay (WGA-SPA beads, IL-8Rβ membranes); details: 20 uM compound; [125I] IL-8, IL-8Rβ membranes
T1 construct: purchased BioSignal, Montreal, Canada; host or cells: Sf9 cells
T1 sequence (P25025 1-360): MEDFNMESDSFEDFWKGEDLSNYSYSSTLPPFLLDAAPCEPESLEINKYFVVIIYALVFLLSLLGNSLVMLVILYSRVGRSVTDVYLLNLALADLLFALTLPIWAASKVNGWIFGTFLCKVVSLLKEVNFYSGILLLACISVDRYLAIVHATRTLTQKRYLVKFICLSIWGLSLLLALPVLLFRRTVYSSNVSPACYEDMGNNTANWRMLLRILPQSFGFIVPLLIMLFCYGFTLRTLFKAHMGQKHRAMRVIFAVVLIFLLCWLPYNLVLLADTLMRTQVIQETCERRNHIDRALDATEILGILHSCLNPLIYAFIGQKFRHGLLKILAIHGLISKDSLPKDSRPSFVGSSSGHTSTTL
Procedure: IL-8 (human recombinant) was obtained from NEN Life Science Products, Inc., Boston, Mass., with specific activity of 2200 Ci/mmol. Recombinant human IL-8 was obtained from R&D Systems, Minneapolis, Minn. IL-8 type β receptor membranes were prepared from […] co-expressed with Gαi3β1γ2 proteins by BioSignal™, Montreal, Canada. Wheat Germ Agglutinin Scintillation Proximity Assay Beads were obtained from Amersham Pharmacia Biotech, Piscataway, N.J. All assays were performed in a 96-well, solvent resistant, white PicoPlate obtained from Packard Instruments. […] The assay was initiated by the addition of WGA-SPA beads in 25 mM Hepes (pH 7.4) containing 2 mM CaCl2 and 1 mM MgCl2. After 4–6 hours of gentle agitation at room temperature, the plate was counted on the Packard TopCount liquid scintillation counter.

SMILES	GRO-α ChTx @ 20 μM, % [1]	IL-8 Binding @ 20 uM, % [2]
O=C(Nc1ccc(F)cc1)c1cc(Cl)c(Cl)[n+]([O-])c1 [drawing 126]	** (“**” for % values greater than 40)	
Cc1cccc(S(=O)(=O)c2ccc(C(=O)Nc3ccc(F)cc3)c[n+]2[O-])c1	** (“**” for % values greater than 40)	* (“*” for % values of less than or equal to 40)
Cc1cc(F)ccc1NC(=O)c1ccc(Cl)[n+]([O-])c1	** (“**” for % values greater than 40)	* (“*” for % values of less than or equal to 40)
CSc1ccc(NC(=O)c2ccc(Cl)[n+]([O-])c2)cc1	** (“**” for % values greater than 40)	
CC(C)(C)c1ccc(NC(=O)c2ccc(Cl)[n+]([O-])c2)cc1	** (“**” for % values greater than 40)	* (“*” for % values of less than or equal to 40)
O=C(Nc1cccc(I)c1)c1ccc(Cl)[n+]([O-])c1	** (“**” for % values greater than 40)	* (“*” for % values of less than or equal to 40)
COc1ccc(C(=O)Nc2ccc(F)cc2)c[n+]1[O-]	** (“**” for % values greater than 40)	* (“*” for % values of less than or equal to 40)
O=C(Nc1ccc(I)c(Cl)c1)c1ccc(Cl)[n+]([O-])c1	** (“**” for % values greater than 40)	* (“*” for % values of less than or equal to 40)
O=C(Nc1ccc(F)cc1)c1ccc(NCc2ccccc2)[n+]([O-])c1	* (“*” for % values of less than or equal to 40)	* (“*” for % values of less than or equal to 40)
CSc1ccccc1NC(=O)c1ccc(Cl)[n+]([O-])c1	** (“**” for % values greater than 40)	
O=C(Nc1ccc(F)cc1)c1ccc(N2CCCC2)[n+]([O-])c1	* (“*” for % values of less than or equal to 40)	* (“*” for % values of less than or equal to 40)
O=C(NC(c1ccccc1)c1ccccc1)c1ccc(Cl)[n+]([O-])c1	** (“**” for % values greater than 40)	* (“*” for % values of less than or equal to 40)
CCCCCNc1ccc(C(=O)Nc2ccc(F)cc2)c[n+]1[O-]	** (“**” for % values greater than 40)	* (“*” for % values of less than or equal to 40)
O=C(O)c1cccc(NC(=O)c2ccc(Cl)[n+]([O-])c2)c1	* (“*” for % values of less than or equal to 40)	
O=C(Nc1cccc(Br)c1)c1ccc(Cl)[n+]([O-])c1	** (“**” for % values greater than 40)	* (“*” for % values of less than or equal to 40)
O=C(Nc1ccc(F)cc1)c1ccc(Cl)[n+]([O-])c1Cl	** (“**” for % values greater than 40)	
O=C(Nc1ccc(F)c(C(F)(F)F)c1)c1ccc(Cl)[n+]([O-])c1	** (“**” for % values greater than 40)	* (“*” for % values of less than or equal to 40)
NC(=O)c1cccc(NC(=O)c2ccc(Cl)[n+]([O-])c2)c1	* (“*” for % values of less than or equal to 40)	* (“*” for % values of less than or equal to 40)
O=C(Nc1ccc(F)cc1)c1ccc(S(=O)(=O)Cc2ccccc2)[n+]([O-])c1 [drawing 52]	** (“**” for % values greater than 40)	** (“**” for % values greater than 40)
CC(C)S(=O)(=O)c1ccc(C(=O)Nc2ccc(F)cc2)c[n+]1[O-]	** (“**” for % values greater than 40)	** (“**” for % values greater than 40)
COC(=O)c1ccc(NC(=O)c2ccc(Cl)[n+]([O-])c2)cc1	** (“**” for % values greater than 40)	

SMILES	GRO-α ChTx @ 20 μM, % [1]	IL-8 Binding @ 20 uM, % [2]
O=C(NCc1ccc(F)cc1)c1ccc(Cl)[n+]([O-])c1	* (“*” for % values of less than or equal to 40)	* (“*” for % values of less than or equal to 40)
CCS(=O)(=O)c1ccc(C(=O)Nc2ccc(F)cc2)c[n+]1[O-] [drawing 49]	** (“**” for % values greater than 40)	** (“**” for % values greater than 40)
O=C(Nc1cccc(F)c1F)c1ccc(Cl)[n+]([O-])c1	** (“**” for % values greater than 40)	
O=C(Nc1ccc(F)c(F)c1C(=O)O)c1ccc(Cl)[n+]([O-])c1	** (“**” for % values greater than 40)	
O=C(NCc1ccccc1)c1ccc(Cl)[n+]([O-])c1	* (“*” for % values of less than or equal to 40)	* (“*” for % values of less than or equal to 40)
O=C(Nc1ccc(F)cc1)c1ccc(Nc2ccccc2)[n+]([O-])c1	* (“*” for % values of less than or equal to 40)	** (“**” for % values greater than 40)
O=C(Nc1ccc(F)cc1)c1ccc(S(=O)(=O)c2ccc(F)cc2)[n+]([O-])c1	** (“**” for % values greater than 40)	** (“**” for % values greater than 40)
O=C(Nc1ccc(F)c(F)c1)c1ccc(Cl)[n+]([O-])c1 [drawing 70]	** (“**” for % values greater than 40)	* (“*” for % values of less than or equal to 40)
CCOc1cccc(NC(=O)c2ccc(Cl)[n+]([O-])c2)c1	C*	* (“*” for % values of less than or equal to 40)
O=C(Nc1ccc(O)c(C(=O)O)c1)c1ccc(Cl)[n+]([O-])c1	* (“*” for % values of less than or equal to 40)	
O=C(Nc1cc(C(F)(F)F)cc(C(F)(F)F)c1)c1ccc(Cl)[n+]([O-])c1	* (“*” for % values of less than or equal to 40)	* (“*” for % values of less than or equal to 40)
O=C(Nc1cc(F)c(F)c(C(=O)O)c1F)c1ccc(Cl)[n+]([O-])c1	* (“*” for % values of less than or equal to 40)	
CC(C)(C)OC(=O)c1cccc(NC(=O)c2ccc(Cl)[n+]([O-])c2)c1	** (“**” for % values greater than 40)	
N#Cc1cccc(NC(=O)c2ccc(Cl)[n+]([O-])c2)c1	** (“**” for % values greater than 40)	
CCCCc1ccc(NC(=O)c2ccc(Cl)[n+]([O-])c2)cc1	** (“**” for % values greater than 40)	
CN(C)c1ccc(C(=O)Nc2ccc(F)cc2)c[n+]1[O-]		* (“*” for % values of less than or equal to 40)
COc1ccc(C(=O)O)cc1NC(=O)c1ccc(Cl)[n+]([O-])c1	** (“**” for % values greater than 40)	
O=C(Nc1ccc(F)cc1)c1ccc(Br)[n+]([O-])c1 [Br, 6-BROMO-N-(4-FLUORO-PHENYL)-1-OXY-NICOTINAMIDE]	** (“**” for % values greater than 40)	
Cc1ccc(C(=O)Nc2ccc(F)cc2)c(Cl)[n+]1[O-]	* (“*” for % values of less than or equal to 40)	
COc1cc(NC(=O)c2ccc(Cl)[n+]([O-])c2)cc(OC)c1OC	* (“*” for % values of less than or equal to 40)	
